Experiments:
human RXRα = molecular target: T1, human RXRα (Homo sapiens, UniProt P19793); assay: RXR reporter gene (luciferase) transfer assay in COS-1 cells; assay type: cell-based; details: for degree of increase in the luciferase activity, RXR vector: control lot = 1
T1 construct: expressed in transfected cells; host or cells: COS-1 cells
T1 sequence (P19793 1-462): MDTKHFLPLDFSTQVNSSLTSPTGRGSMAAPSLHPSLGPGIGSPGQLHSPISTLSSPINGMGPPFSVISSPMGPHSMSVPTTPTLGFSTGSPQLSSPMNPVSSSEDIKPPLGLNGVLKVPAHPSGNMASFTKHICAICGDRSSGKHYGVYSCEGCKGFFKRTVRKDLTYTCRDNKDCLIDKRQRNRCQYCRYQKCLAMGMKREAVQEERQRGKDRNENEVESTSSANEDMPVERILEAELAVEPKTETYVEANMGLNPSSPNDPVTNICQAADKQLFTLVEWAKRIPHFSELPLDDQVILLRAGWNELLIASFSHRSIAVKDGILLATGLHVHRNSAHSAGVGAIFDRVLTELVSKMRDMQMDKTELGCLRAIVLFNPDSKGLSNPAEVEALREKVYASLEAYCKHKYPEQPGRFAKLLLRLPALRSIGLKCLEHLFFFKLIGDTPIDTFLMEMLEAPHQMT
Protocol: A plasmid containing a reporter gene regulated in expression by RXR response element and an RXRα expression plasmid were transferred into COS-1 cells. Then these cells were treated with the compounds of the present invention such as ascochlorin.
Plasmids were transferred into COS-1 cells. Gene transfer was carried out in a conventional manner with the use of Lipofect AMINE reagent (Life Technologies). 1×10^5 cells were dispersed in 2 ml of Dulbecco's modified Eagle medium (DMEM) containing 10% of fetal calf serum and poured into a 35 mm Petri dish. After culturing in a CO2 incubator for 17 hours, the medium was removed and the cells adhering to the Petri dish were washed with phosphate-buffered saline (PBS). Then gene transfer was carried out by using Lipofect AMINE reagent. Namely, 500 ml of a minimum serum medium OptiMEM (Life Technologies) containing […] of a plasmid containing a luciferase gene under the regulation in expression by RXR response element (PRXRL: RXRE-SV40 luciferase; a reporter gene plasmid wherein RXRE has been ligated to SV40 promoter and luciferase cDNA, under the regulation in expression thereby, has been located downstream thereof); […] of an RXRα expression plasmid (pRXRα; a plasmid wherein human RXRα CDNA has been ligated to the downstream of a cytomegalovirus promoter to express human RXRα in mammalian cells); and 2 mg of a β-galactosidase gene plasmid to assess the gene transfer ratio (pCH110; Pharmacia) were pre-mixed with 500 ml of OptiMEM containing 50 ml of Lipofec AMINE, and the resultant mixture was maintained at room temperature for 15 minutes. 100 ml of this liquid mixture was mixed with 400 ml of OptiMEM, and the medium mixture was divided to the Petri dish. After maintaining in a CO2 incubator at 37° C. for 3 hours, the gene transfer medium was sucked off from the Petri dish and DMEM medium containing a test substance and 10% of serum (activated carbon-treated) was added thereto followed by culturing at 37° C. for 20 hours. […] Further, dimethyl sulfoxide (final concentration: 0.1%) was added as the solvent for the test substance.
(§1) After sucking off the medium from the Petri dish, […] of a cultured cell lysing solution (25 mM Tris phosphate buffer (pH 7.8), 2 mM 1,2-diaminocyclohexane-N, N,N′,N′-tetraacetate, 10% glycerol, 1% Triton X-100) was added and the cells were peeled off with a rubber policeman and collected. After completely disrupting the cells by freezing and melting, the cells were centrifuged at 4° C. (15,000 rpm, 2 min) and the supernatant thus obtained was employed as a sample for measurement. To 20 ml of the supernatant, 100 ml of a luciferase substrate solution (2.14 mg of Co-A, 100 ml of 470 mM D-Luciferin, 200 ml of 530 mM ATP, 2 ml of DTT-Tricine buffer (pH 7.8)) was added and the fluorescence intensity was measured with a luminometer (ATTO Luminosensor AB-2000). To measure the β-galactosidase for determining the gene transfer efficiency, using a Luminescent β-galactosidase detection kit II (Clontech), fluorescence intensity was measured by a luminometer.

RAR = molecular target: T2, RAR (Homo sapiens, UniProt P10276); assay: RAR reporter gene (luciferase) transfer assay in COS-1 cells; assay type: cell-based; details: control lot = 1
T2 construct: expressed in transfected cells; host or cells: COS-1 cells
T2 sequence (P10276 1-462): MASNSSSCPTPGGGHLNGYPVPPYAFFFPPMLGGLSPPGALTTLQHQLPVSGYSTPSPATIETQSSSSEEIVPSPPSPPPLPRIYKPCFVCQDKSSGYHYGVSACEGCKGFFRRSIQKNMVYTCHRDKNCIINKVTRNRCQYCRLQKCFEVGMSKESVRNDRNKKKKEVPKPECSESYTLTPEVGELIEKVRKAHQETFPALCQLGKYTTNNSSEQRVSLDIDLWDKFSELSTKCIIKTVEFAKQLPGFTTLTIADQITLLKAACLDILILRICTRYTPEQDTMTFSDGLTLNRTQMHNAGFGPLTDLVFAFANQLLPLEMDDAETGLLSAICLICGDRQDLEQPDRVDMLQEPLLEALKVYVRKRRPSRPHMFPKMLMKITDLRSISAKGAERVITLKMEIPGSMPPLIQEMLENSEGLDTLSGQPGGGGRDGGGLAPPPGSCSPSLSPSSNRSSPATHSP
Source text: Each value means the degree of increase in the luciferase activity, which is expressed by referring the luciferase activity in the control lot as to 1, caused by the addition of the corresponding compound.
As a substitute for a plasmid containing a luciferase gene under the regulation in expression by RXR response element (pRXRL:RXRE-SV40 luciferase), and the RXRα expression plasmid (pRXRα); a plasmid containing a luciferase gene under the regulation in expression by RXR response element (pRARL:RASE-SV40 luciferase), and a […] (pRARα) were transferred into COS-1 cells. Transfectants with these plasmids and the compound of the present invention (concentration: 10^−4 to 10^−7 M) were added to the culture.
as §1

Compound: 3-[5-[l(R),2(S),6(S)-trimethyl-3-oxocylohexyl]-3-methyl-2,4-pentadienyl]-2,4-dihydroxy-5-chloro-6-methylbenzaldehyde [Compound-1]
- fold increase in luciferase reporter activity (control = 1) (human RXRα; 10^−6 M): 2.03
- degree of increase in the luciferase activity, RXR vector (human RXRα; 10^−6 M): 61
- degree of increase in the luciferase activity, RAR vector (RAR; 10^−6 M): 30

Compound: COc1c(Cl)c(C)c(C=O)c(O)c1C/C=C(C)/C=C/[C@@]1(C)[C@H](C)CCC(=O)[C@@H]1C [Compound-6, 4-O-methylASC]
- fold increase in luciferase reporter activity (control = 1) (human RXRα; 5 × 10^−6 M): 1.57
- degree of increase in the luciferase activity, RXR vector (human RXRα; 5 × 10^−6 M): 55
- degree of increase in the luciferase activity, RAR vector (RAR; 5 × 10^−6 M): 35

Compound: CC(/C=C/C1(C)C(C)C=CC(=O)C1C)=C\Cc1c(O)c(Cl)c(C)c(C=O)c1O (stereo not drawn) [Compound-26]
- fold increase in luciferase reporter activity (control = 1) (human RXRα; 4 × 10^−7 M): 1.91
- degree of increase in the luciferase activity, RXR vector (human RXRα; 4 × 10^−7 M): 63
- degree of increase in the luciferase activity, RAR vector (RAR; 4 × 10^−7 M): 33

Compound: CC(/C=C/[C@@]1(C)[C@H](C)CCC(=O)[C@@H]1C)=C\Cc1c(O)c(C=O)c(C)c(Cl)c1OCC(=O)O [Compound-14, 4-O-carboxymethylASC]
- fold increase in luciferase reporter activity (control = 1) (human RXRα; 10^−5 M): 1.23
- degree of increase in the luciferase activity, RXR vector (human RXRα; 10^−5 M): 47
- degree of increase in the luciferase activity, RAR vector (RAR; 10^−5 M): 38
